The data set concerns Caco-2. In words: Permeability of the compound from apical to basolateral side in human Caco2 cells. Format: ADME, cell-based. In general terms: Passage across Caco-2 layers is used to estimate intestinal permeability.

Molecules are shown by their SMILES.

Take `CS(=O)(=O)c1cccc(Cn2ccc(N3CCc4[nH]nc(-c5ccncc5)c4C3)cc2=O)c1`: the permeability result is “impermeable”.
With `O=c1cc(N2CCc3[nH]nc(-c4ccncc4)c3C2)cc[nH]1`, the permeability result is on record as “permeable”.
